Reference: patent US6833389B2, “Use of thiamphenicol and derivatives thereof for the preparation of pharmaceutical compositions useful in the treatment of Chlamydia pneumoniae infections” (Zambon Group S.p.A., priority 2000, dated 2004)
≈ marks a conversion by molar mass, not a printed value. Like-named read-outs stand apart in the source and are kept apart here. Each block holds one compound with its values, some of them ahead of it.

Experiments:
Chlamydia pneumoniae = assay: MIC against Chlamydia pneumoniae strains in Hep-2 cell monolayers (inhibition of inclusion formation); type: cell-based
Protocol: Chlamydia pneumoniae TW183 and Chlamydia pneumoniae 2023 were obtained from American Type Culture Collection. The other strains (No. 9 isolated) were clinically isolated in the period 1997-1999. […] Monolayers of Hep-2 cells were prepared by seeding 2×10^5 cell/ml in EMEM with 10% fetal calf serum supplemented with L-glutammine, on 12 mm cover slips and left at 35° C., 5% CO2 for 24 to 48 hours for confluent growth. The growth medium was removed and Hep-2 monolayers were inoculated with the different strains at predetermined concentration calculated to give 3-5×10^2 inclusions for well. The monolayers, inoculated with Chlamydia pneumoniae were centrifuged at 1700 g for 60 minutes at 30° C. […] In positive control no antibiotic was added and negative control were considered wells not inoculated with Chlamydia pneumoniae. […] All tests were run in duplicate. The number of inclusions were counted and the MIC (the lowest concentration at which complete inhibition of inclusion formation was observed) was determined.

Chlamydia trachomatis = conditions: literature (Ridgeway et al. 1979); markedly lower than erythromycin; cited from earlier work
[1] = Chlamydia pneumoniae, 72 h, MIC range over the 11 Chlamydia pneumoniae strains, Hep-2 cells, 3 days, read-out: MIC
[2] = strain 1 (clinical isolate), test I
[3] = strain 1 (clinical isolate), test II
[4] = strain 2 (clinical isolate), test I
[5] = strain 2 (clinical isolate), test II
[6] = strain 3 (clinical isolate), test I
[7] = strain 3 (clinical isolate), test II
[8] = strain 4 (clinical isolate), test I
[9] = strain 4 (clinical isolate), test II
[10] = strain 5 (clinical isolate), test I
[11] = strain 5 (clinical isolate), test II
[12] = strain 6 (clinical isolate), test I
[13] = strain 6 (clinical isolate), test II
[14] = strain 7 (clinical isolate), test I
[15] = strain 7 (clinical isolate), test II
[16] = strain 8 (clinical isolate), test I
[17] = strain 8 (clinical isolate), test II
[18] = strain 9 (clinical isolate), test I
[19] = strain 9 (clinical isolate), test II

MIC (Chlamydia pneumoniae; [1]): 0.06 to 0.25 µg/mL (≈ 0.135 to 0.563 µM)
MIC (Chlamydia pneumoniae; Chlamydia pneumoniae, ATCC2023, strain ATCC 2023, test I, read-out: MIC): 0.06 µg/mL (≈ 0.135 µM)
MIC (Chlamydia pneumoniae; Chlamydia pneumoniae, ATCC2023, strain ATCC 2023, test II, read-out: MIC): 0.06 µg/mL (≈ 0.135 µM)
MIC (Chlamydia pneumoniae; Chlamydia pneumoniae, strain 1 (clinical isolate), test I, read-out: MIC): 0.06 µg/mL (≈ 0.135 µM)
MIC (Chlamydia pneumoniae; Chlamydia pneumoniae, strain 1 (clinical isolate), test II, read-out: MIC): 0.125 µg/mL (≈ 0.281 µM)
MIC (Chlamydia pneumoniae; Chlamydia pneumoniae, strain 2 (clinical isolate), test I, read-out: MIC): 0.125 µg/mL (≈ 0.281 µM)
MIC (Chlamydia pneumoniae; Chlamydia pneumoniae, strain 2 (clinical isolate), test II, read-out: MIC): 0.125 µg/mL (≈ 0.281 µM)
MIC (Chlamydia pneumoniae; Chlamydia pneumoniae, strain 3 (clinical isolate), test I, read-out: MIC): 0.125 µg/mL (≈ 0.281 µM)
MIC (Chlamydia pneumoniae; Chlamydia pneumoniae, strain 3 (clinical isolate), test II, read-out: MIC): 0.125 µg/mL (≈ 0.281 µM)
MIC (Chlamydia pneumoniae; Chlamydia pneumoniae, strain 4 (clinical isolate), test I, read-out: MIC): 0.06 µg/mL (≈ 0.135 µM)
MIC (Chlamydia pneumoniae; Chlamydia pneumoniae, strain 4 (clinical isolate), test II, read-out: MIC): 0.06 µg/mL (≈ 0.135 µM)
MIC (Chlamydia pneumoniae; Chlamydia pneumoniae, strain 5 (clinical isolate), test I, read-out: MIC): 0.125 µg/mL (≈ 0.281 µM)
MIC (Chlamydia pneumoniae; Chlamydia pneumoniae, strain 5 (clinical isolate), test II, read-out: MIC): 0.06 µg/mL (≈ 0.135 µM)
MIC (Chlamydia pneumoniae; Chlamydia pneumoniae, strain 6 (clinical isolate), test I, read-out: MIC): 0.06 µg/mL (≈ 0.135 µM)
MIC (Chlamydia pneumoniae; Chlamydia pneumoniae, strain 6 (clinical isolate), test II, read-out: MIC): 0.06 µg/mL (≈ 0.135 µM)
MIC (Chlamydia pneumoniae; Chlamydia pneumoniae, strain 7 (clinical isolate), test I, read-out: MIC): 0.06 µg/mL (≈ 0.135 µM)
MIC (Chlamydia pneumoniae; Chlamydia pneumoniae, strain 7 (clinical isolate), test II, read-out: MIC): 0.06 µg/mL (≈ 0.135 µM)
MIC (Chlamydia pneumoniae; Chlamydia pneumoniae, strain 8 (clinical isolate), test I, read-out: MIC): 0.25 µg/mL (≈ 0.563 µM)
MIC (Chlamydia pneumoniae; Chlamydia pneumoniae, strain 8 (clinical isolate), test II, read-out: MIC): 0.06 µg/mL (≈ 0.135 µM)
MIC (Chlamydia pneumoniae; Chlamydia pneumoniae, strain 9 (clinical isolate), test I, read-out: MIC): 0.25 µg/mL (≈ 0.563 µM)
MIC (Chlamydia pneumoniae; Chlamydia pneumoniae, strain 9 (clinical isolate), test II, read-out: MIC): 0.25 µg/mL (≈ 0.563 µM)
MIC (Chlamydia pneumoniae; Chlamydia pneumoniae, strain TW 183, test I, read-out: MIC): 0.125 µg/mL (≈ 0.281 µM)
MIC (Chlamydia pneumoniae; Chlamydia pneumoniae, strain TW 183, test II, read-out: MIC): 0.25 µg/mL (≈ 0.563 µM)
SMILES: C[C@H]1c2cccc(O)c2C(=O)C2=C(O)[C@]3(O)C(=O)C(C(N)=O)=C(O)[C@@H](N(C)C)[C@@H]3[C@@H](O)[C@@H]21 [Doxycycline, doxycycline]

MIC (Chlamydia pneumoniae; [2]): 0.03 µg/mL
MIC (Chlamydia pneumoniae; [3]): 0.06 µg/mL
MIC (Chlamydia pneumoniae; [4]): 0.03 µg/mL
MIC (Chlamydia pneumoniae; [5]): 0.03 µg/mL
MIC (Chlamydia pneumoniae; [6]): 0.125 µg/mL
MIC (Chlamydia pneumoniae; [7]): 0.125 µg/mL
MIC (Chlamydia pneumoniae; [8]): 0.25 µg/mL
MIC (Chlamydia pneumoniae; [9]): 0.06 µg/mL
MIC (Chlamydia pneumoniae; [10]): 0.125 µg/mL
MIC (Chlamydia pneumoniae; [11]): 0.125 µg/mL
MIC (Chlamydia pneumoniae; [12]): 0.03 µg/mL
MIC (Chlamydia pneumoniae; [13]): 0.03 µg/mL
MIC (Chlamydia pneumoniae; [14]): 0.03 µg/mL
MIC (Chlamydia pneumoniae; [15]): 0.03 µg/mL
MIC (Chlamydia pneumoniae; [16]): 0.125 µg/mL
MIC (Chlamydia pneumoniae; [17]): 0.03 µg/mL
MIC (Chlamydia pneumoniae; [18]): 0.125 µg/mL
MIC (Chlamydia pneumoniae; [19]): 0.125 µg/mL
MIC (Chlamydia pneumoniae; strain ATCC 2023, test I): 0.03 µg/mL
MIC (Chlamydia pneumoniae; strain ATCC 2023, test II): 0.03 µg/mL
MIC (Chlamydia pneumoniae; strain TW 183, test I): 0.06 µg/mL
MIC (Chlamydia pneumoniae; strain TW 183, test II): 0.03 µg/mL
SMILES: CC(=O)N[C@@H](CS)C(=O)O.CS(=O)(=O)c1ccc([C@@H](O)[C@@H](COC(=O)CN)NC(=O)C(Cl)Cl)cc1 [TGA, thiamphenicol glycinate acetylcysteinate]

SMILES: CN(C)[C@@H]1C(O)=C(C(N)=O)C(=O)[C@@]2(O)C(O)=C3C(=O)c4c(O)cccc4[C@@](C)(O)[C@H]3C[C@@H]12.Cl [Tetracycline, tetracycline hydrochloride]
MIC (Chlamydia pneumoniae; MIC range over the 11 Chlamydia pneumoniae strains, Hep-2 cells, 3 days): 0.06 to 0.5 µg/mL
MIC (Chlamydia pneumoniae; [2]): 0.06 µg/mL
MIC (Chlamydia pneumoniae; [3]): 0.06 µg/mL
MIC (Chlamydia pneumoniae; [4]): 0.06 µg/mL
MIC (Chlamydia pneumoniae; [5]): 0.06 µg/mL
MIC (Chlamydia pneumoniae; [6]): 0.125 µg/mL
MIC (Chlamydia pneumoniae; [7]): 0.125 µg/mL
MIC (Chlamydia pneumoniae; [8]): 0.125 µg/mL
MIC (Chlamydia pneumoniae; [9]): 0.5 µg/mL
MIC (Chlamydia pneumoniae; [10]): 0.125 µg/mL
MIC (Chlamydia pneumoniae; [11]): 0.25 µg/mL
MIC (Chlamydia pneumoniae; [12]): 0.06 µg/mL
MIC (Chlamydia pneumoniae; [13]): 0.5 µg/mL
MIC (Chlamydia pneumoniae; [14]): 0.125 µg/mL
MIC (Chlamydia pneumoniae; [15]): 0.125 µg/mL
MIC (Chlamydia pneumoniae; [16]): 0.06 µg/mL
MIC (Chlamydia pneumoniae; [17]): 0.06 µg/mL
MIC (Chlamydia pneumoniae; [18]): 0.06 µg/mL
MIC (Chlamydia pneumoniae; [19]): 0.5 µg/mL
MIC (Chlamydia pneumoniae; strain ATCC 2023, test I): 0.06 µg/mL
MIC (Chlamydia pneumoniae; strain ATCC 2023, test II): 0.125 µg/mL
MIC (Chlamydia pneumoniae; strain TW 183, test I): 0.06 µg/mL
MIC (Chlamydia pneumoniae; strain TW 183, test II): 0.06 µg/mL

MIC (Chlamydia pneumoniae; [1]): 0.03 to 0.25 µg/mL (≈ 0.0842 to 0.702 µM)
SMILES: CS(=O)(=O)c1ccc([C@@H](O)[C@@H](CO)NC(=O)C(Cl)Cl)cc1 [thiamphenicol]
activity against Chlamydia trachomatis (Chlamydia trachomatis): active
